{"source": "patent US20110086759A1", "about": "“CHEMICAL COMPOUNDS” (SYNGENTA CROP PROTECTION, INC., priority 2007, published 2011)", "format_in_all_cases": "in vivo", "key": {"[1]": {"system": "Echinochloa crus-galli (ECHCG)", "test": "Pre-emergence biological efficacy, glasshouse pot test", "conditions": "312 h", "outline": "(§1)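 Scores on a 0–100 damage scale were taken 13 days after spraying. Application rate 1000 or 250 g/ha, one day after sowing, in acetone/water-based aqueous spray containing 0.5% Tween 20.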"}, "[2]": {"system": "Alopecurus myosuroides (ALOMY)", "test": "Pre-emergence biological efficacy, glasshouse pot test", "conditions": "312 h", "outline": "as §1"}, "[3]": {"system": "Amaranthus retoflexus (AMARE)", "test": "Pre-emergence biological efficacy, glasshouse pot test", "conditions": "Amaranthus retroflexus, 312 h", "outline": "as §1"}, "[4]": {"system": "Ipomea hederaceae (IPOHE)", "test": "Pre-emergence biological efficacy, glasshouse pot test", "conditions": "Ipomoea hederacea, 312 h", "outline": "as §1"}, "[5]": {"system": "Solanum nigrum (SOLNI)", "test": "Pre-emergence biological efficacy, glasshouse pot test", "conditions": "312 h", "outline": "as §1"}, "[6]": {"system": "Setaria faberi (SETFA)", "test": "Pre-emergence biological efficacy, glasshouse pot test", "conditions": "312 h", "outline": "as §1"}, "[7]": {"system": "Echinochloa crus-galli (ECHCG)", "test": "Post-emergence biological efficacy, glasshouse pot test", "conditions": "312 h", "outline": "(§2)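 Scored 13 days after spraying on a 0 (no damage) to 100 (total damage) scale. Treatment was a post-emergence spray at 1000 or 250 g/ha, from acetone/water 50:50 plus 0.5% Tween 20, onto 8-day-old plants in soil pots. Growth at 24/16° C, 14 h photoperiod, 65% humidity, watered twice daily.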"}, "[8]": {"system": "Alopecurus myosuroides (ALOMY)", "test": "Post-emergence biological efficacy, glasshouse pot test", "conditions": "312 h", "outline": "as §2"}, "[9]": {"system": "Amaranthus retoflexus (AMARE)", "test": "Post-emergence biological efficacy, glasshouse pot test", "conditions": "Amaranthus retroflexus, 312 h", "outline": "as §2"}, "[10]": {"system": "Ipomea hederaceae (IPOHE)", "test": "Post-emergence biological efficacy, glasshouse pot test", "conditions": "Ipomoea hederacea, 312 h", "outline": "as §2"}, "[11]": {"system": "Solanum nigrum (SOLNI)", "test": "Post-emergence biological efficacy, glasshouse pot test", "conditions": "312 h", "outline": "as §2"}, "[12]": {"system": "Setaria faberi (SETFA)", "test": "Post-emergence biological efficacy, glasshouse pot test", "conditions": "312 h", "outline": "as §2"}, "[13]": {"conditions": "pre-emergence, 1,000 g/ha, evaluated after 13 days (100=total damage; 0=no damage), read-out: Percentage damage ECHCG"}, "[14]": {"conditions": "pre-emergence, 1,000 g/ha, evaluated after 13 days (100=total damage; 0=no damage), read-out: Percentage damage ALOMY"}, "[15]": {"conditions": "pre-emergence, 1,000 g/ha, evaluated after 13 days (100=total damage; 0=no damage), read-out: Percentage damage AMARE"}, "[16]": {"conditions": "pre-emergence, 1,000 g/ha, evaluated after 13 days (100=total damage; 0=no damage), read-out: Percentage damage IPOHE"}, "[17]": {"conditions": "pre-emergence, 1,000 g/ha, evaluated after 13 days (100=total damage; 0=no damage), read-out: Percentage damage SOLNI"}, "[18]": {"conditions": "pre-emergence, 1,000 g/ha, evaluated after 13 days (100=total damage; 0=no damage), read-out: Percentage damage SETFA"}, "[19]": {"conditions": "post-emergence, 1,000 g/ha, evaluated after 13 days (100=total damage; 0=no damage), read-out: Percentage damage caused to weed species, ECHCG"}, "[20]": {"conditions": "post-emergence, 1,000 g/ha, evaluated after 13 days (100=total damage; 0=no damage), read-out: Percentage damage caused to weed species, ALOMY"}, "[21]": {"conditions": "post-emergence, 1,000 g/ha, evaluated after 13 days (100=total damage; 0=no damage), read-out: Percentage damage caused to weed species, AMARE"}, "[22]": {"conditions": "post-emergence, 1,000 g/ha, evaluated after 13 days (100=total damage; 0=no damage), read-out: Percentage damage caused to weed species, IPOHE"}, "[23]": {"conditions": "post-emergence, 1,000 g/ha, evaluated after 13 days (100=total damage; 0=no damage), read-out: Percentage damage caused to weed species, SOLNI"}, "[24]": {"conditions": "post-emergence, 1,000 g/ha, evaluated after 13 days (100=total damage; 0=no damage), read-out: Percentage damage caused to weed species, SETFA"}}}
{"smiles": "COC(=O)c1nc(C2CC2)nc(NCC(C)(F)c2cccc(Cl)c2)c1Cl", "note": "(stereo not drawn) [Compound 4-241, 5-Chloro-4-[2-(3-chlorophenyl)-2-fluoro-propylamino]-2-cyclopropyl-6-methoxycarbonyl-pyrimidine]", "values": [{"measurement": "pest or weed control at 1000 g/ha", "setting": "[1]; [13]", "result": 0, "unit": "%"}, {"measurement": "pest or weed control at 1000 g/ha", "setting": "[2]; [14]", "result": 0, "unit": "%"}, {"measurement": "pest or weed control at 1000 g/ha", "setting": "[3]; [15]", "result": 30, "unit": "%"}, {"measurement": "pest or weed control at 1000 g/ha", "setting": "[4]; [16]", "result": 0, "unit": "%"}, {"measurement": "pest or weed control at 1000 g/ha", "setting": "[5]; [17]", "result": 0, "unit": "%"}, {"measurement": "pest or weed control at 1000 g/ha", "setting": "[6]; [18]", "result": 0, "unit": "%"}, {"measurement": "pest or weed control at 1000 g/ha", "setting": "[7]; [19]", "result": 10, "unit": "%"}, {"measurement": "pest or weed control at 1000 g/ha", "setting": "[8]; [20]", "result": 0, "unit": "%"}, {"measurement": "pest or weed control at 1000 g/ha", "setting": "[9]; [21]", "result": 60, "unit": "%"}, {"measurement": "pest or weed control at 1000 g/ha", "setting": "[10]; [22]", "result": 60, "unit": "%"}, {"measurement": "pest or weed control at 1000 g/ha", "setting": "[11]; [23]", "result": 70, "unit": "%"}, {"measurement": "pest or weed control at 1000 g/ha", "setting": "[12]; [24]", "result": 30, "unit": "%"}]}
{"smiles": "COC(=O)c1nc(-c2ccc(OC)cc2C)nc(NCc2ccco2)c1Cl", "note": "[Compound 251-48, 5-Chloro-4-(furan-2-yl-methylamino)-2-(4-methoxy-2-methyl-pheny)-6-methoxy-carbonylpyrimidine]", "values": [{"measurement": "pest or weed control at 1000 g/ha", "setting": "[1]; pre-emergence, rate 1,000 g/ha, evaluated after 13 days (100=total damage to plant; 0=no damage), read-out: Percentage damage caused to weed species, ECHCG", "result": 0, "unit": "%"}, {"measurement": "pest or weed control at 1000 g/ha", "setting": "[2]; pre-emergence, rate 1,000 g/ha, evaluated after 13 days (100=total damage to plant; 0=no damage), read-out: Percentage damage caused to weed species, ALOMY", "result": 0, "unit": "%"}, {"measurement": "pest or weed control at 1000 g/ha", "setting": "[3]; pre-emergence, rate 1,000 g/ha, evaluated after 13 days (100=total damage to plant; 0=no damage), read-out: Percentage damage caused to weed species, AMARE", "result": 0, "unit": "%"}, {"measurement": "pest or weed control at 1000 g/ha", "setting": "[4]; pre-emergence, rate 1,000 g/ha, evaluated after 13 days (100=total damage to plant; 0=no damage), read-out: Percentage damage caused to weed species, IPOHE", "result": 0, "unit": "%"}, {"measurement": "pest or weed control at 1000 g/ha", "setting": "[5]; pre-emergence, rate 1,000 g/ha, evaluated after 13 days (100=total damage to plant; 0=no damage), read-out: Percentage damage caused to weed species, SOLNI", "result": 0, "unit": "%"}, {"measurement": "pest or weed control at 1000 g/ha", "setting": "[6]; pre-emergence, rate 1,000 g/ha, evaluated after 13 days (100=total damage to plant; 0=no damage), read-out: Percentage damage caused to weed species, SETFA", "result": 0, "unit": "%"}, {"measurement": "pest or weed control at 1000 g/ha", "setting": "[7]; Rate 1,000 g/ha, post-emergence spray, evaluated after 13 days (100=total damage to plant; 0=no damage to plant), read-out: Percentage damage caused to weed species, post-emergence, ECHCG", "result": 0, "unit": "%"}, {"measurement": "pest or weed control at 1000 g/ha", "setting": "[8]; Rate 1,000 g/ha, post-emergence spray, evaluated after 13 days (100=total damage to plant; 0=no damage to plant), read-out: Percentage damage caused to weed species, post-emergence, ALOMY", "result": 0, "unit": "%"}, {"measurement": "pest or weed control at 1000 g/ha", "setting": "[9]; Rate 1,000 g/ha, post-emergence spray, evaluated after 13 days (100=total damage to plant; 0=no damage to plant), read-out: Percentage damage caused to weed species, post-emergence, AMARE", "result": 0, "unit": "%"}, {"measurement": "pest or weed control at 1000 g/ha", "setting": "[10]; Rate 1,000 g/ha, post-emergence spray, evaluated after 13 days (100=total damage to plant; 0=no damage to plant), read-out: Percentage damage caused to weed species, post-emergence, IPOHE", "result": 0, "unit": "%"}, {"measurement": "pest or weed control at 1000 g/ha", "setting": "[11]; Rate 1,000 g/ha, post-emergence spray, evaluated after 13 days (100=total damage to plant; 0=no damage to plant), read-out: Percentage damage caused to weed species, post-emergence, SOLNI", "result": 20, "unit": "%"}, {"measurement": "pest or weed control at 1000 g/ha", "setting": "[12]; Rate 1,000 g/ha, post-emergence spray, evaluated after 13 days (100=total damage to plant; 0=no damage to plant), read-out: Percentage damage caused to weed species, post-emergence, SETFA", "result": 0, "unit": "%"}]}
{"smiles": "COC(=O)c1nc(C2CC2)nc(NCc2ncc(C(F)(F)F)cc2Cl)c1Cl", "note": "[Compound 4-155, 5-Chloro-4-(3-chloro-5-trifluoromethylpyrid-2-ylmethylamino)-2-cyclopropyl-6-methoxycarbonyl-pyrimidine]", "values": [{"measurement": "pest or weed control at 1000 g/ha", "setting": "[1]; [13]", "result": 80, "unit": "%"}, {"measurement": "pest or weed control at 1000 g/ha", "setting": "[2]; [14]", "result": 20, "unit": "%"}, {"measurement": "pest or weed control at 1000 g/ha", "setting": "[3]; [15]", "result": 90, "unit": "%"}, {"measurement": "pest or weed control at 1000 g/ha", "setting": "[4]; [16]", "result": 90, "unit": "%"}, {"measurement": "pest or weed control at 1000 g/ha", "setting": "[5]; [17]", "result": 70, "unit": "%"}, {"measurement": "pest or weed control at 1000 g/ha", "setting": "[6]; [18]", "result": 20, "unit": "%"}, {"measurement": "pest or weed control at 1000 g/ha", "setting": "[7]; [19]", "result": 70, "unit": "%"}, {"measurement": "pest or weed control at 1000 g/ha", "setting": "[8]; [20]", "result": 30, "unit": "%"}, {"measurement": "pest or weed control at 1000 g/ha", "setting": "[9]; [21]", "result": 100, "unit": "%"}, {"measurement": "pest or weed control at 1000 g/ha", "setting": "[10]; [22]", "result": 90, "unit": "%"}, {"measurement": "pest or weed control at 1000 g/ha", "setting": "[11]; [23]", "result": 90, "unit": "%"}, {"measurement": "pest or weed control at 1000 g/ha", "setting": "[12]; [24]", "result": 70, "unit": "%"}]}
{"smiles": "COC(=O)c1nc(C2CC2)nc(NC(C)CC2CCCC2)c1Cl", "note": "(stereo not drawn) [Compound 4-230, 5-Chloro-4-(2-cyclopentyl-1-methyl-ethylamino)-2-cyclopropyl-6-methoxycarbonyl-pyrimidine]", "values": [{"measurement": "pest or weed control at 1000 g/ha", "setting": "[1]; [13]", "result": 0, "unit": "%"}, {"measurement": "pest or weed control at 1000 g/ha", "setting": "[2]; [14]", "result": 0, "unit": "%"}, {"measurement": "pest or weed control at 1000 g/ha", "setting": "[3]; [15]", "result": 10, "unit": "%"}, {"measurement": "pest or weed control at 1000 g/ha", "setting": "[4]; [16]", "result": 40, "unit": "%"}, {"measurement": "pest or weed control at 1000 g/ha", "setting": "[5]; [17]", "result": 0, "unit": "%"}, {"measurement": "pest or weed control at 1000 g/ha", "setting": "[6]; [18]", "result": 0, "unit": "%"}, {"measurement": "pest or weed control at 1000 g/ha", "setting": "[7]; [19]", "result": 0, "unit": "%"}, {"measurement": "pest or weed control at 1000 g/ha", "setting": "[8]; [20]", "result": 0, "unit": "%"}, {"measurement": "pest or weed control at 1000 g/ha", "setting": "[9]; [21]", "result": 40, "unit": "%"}, {"measurement": "pest or weed control at 1000 g/ha", "setting": "[10]; [22]", "result": 40, "unit": "%"}, {"measurement": "pest or weed control at 1000 g/ha", "setting": "[11]; [23]", "result": 40, "unit": "%"}, {"measurement": "pest or weed control at 1000 g/ha", "setting": "[12]; [24]", "result": 0, "unit": "%"}]}
